Consider 1 compound from ChEMBL document CHEMBL1765075, “Discovery and structure-activity relationship of 3-aminopyrid-2-ones as potent and selective interleukin-2 inducible T-cell kinase (Itk) inhibitors” (J Med Chem, 2011).

In data set [1] the target is Calcium/calmodulin-dependent protein kinase type 1D (Homo sapiens, UniProt Q8IU85). Briefly: Inhibition of CAMK1D.
Data set [2] concerns the target Calcium/calmodulin-dependent protein kinase type IV (Homo sapiens, UniProt Q16566). The data set is described as follows: Inhibition of CAMK4.
Data set [3] deals with MAP kinase-activated protein kinase 5 (Homo sapiens, UniProt Q8IW41). The data set is described as follows: Inhibition of PRAK.
For data set [4], the target named is Mitogen-activated protein kinase 8 (Homo sapiens, UniProt P45983). The data set is described as follows: Inhibition of JNK1.
Data set [5] has as its target Proto-oncogene tyrosine-protein kinase ROS (Homo sapiens, UniProt P08922). Briefly: Inhibition of ROS.
The target of data set [6] is Insulin receptor (Homo sapiens, UniProt P06213). Briefly: Inhibition of IR.
Data set [7] is described as follows: Permeability across basolateral to apical side of human Caco2 cells after 120 mins by LC-MS/MS analysis. It counts as ADME, cell-based. The settings on record: Caco-2, read-out: permeability.
In data set [8] the target is Glycogen synthase kinase-3 beta (Homo sapiens, UniProt P49841). The data set is described as follows: Inhibition of GSK3-beta.
In data set [9] the target is Mast/stem cell growth factor receptor Kit (Homo sapiens, UniProt P10721). Briefly: Inhibition of c-Kit after 45 mins by radiometric phosphate incorporation assay.
Sequence of Mast/stem cell growth factor receptor Kit (P10721 whole entry): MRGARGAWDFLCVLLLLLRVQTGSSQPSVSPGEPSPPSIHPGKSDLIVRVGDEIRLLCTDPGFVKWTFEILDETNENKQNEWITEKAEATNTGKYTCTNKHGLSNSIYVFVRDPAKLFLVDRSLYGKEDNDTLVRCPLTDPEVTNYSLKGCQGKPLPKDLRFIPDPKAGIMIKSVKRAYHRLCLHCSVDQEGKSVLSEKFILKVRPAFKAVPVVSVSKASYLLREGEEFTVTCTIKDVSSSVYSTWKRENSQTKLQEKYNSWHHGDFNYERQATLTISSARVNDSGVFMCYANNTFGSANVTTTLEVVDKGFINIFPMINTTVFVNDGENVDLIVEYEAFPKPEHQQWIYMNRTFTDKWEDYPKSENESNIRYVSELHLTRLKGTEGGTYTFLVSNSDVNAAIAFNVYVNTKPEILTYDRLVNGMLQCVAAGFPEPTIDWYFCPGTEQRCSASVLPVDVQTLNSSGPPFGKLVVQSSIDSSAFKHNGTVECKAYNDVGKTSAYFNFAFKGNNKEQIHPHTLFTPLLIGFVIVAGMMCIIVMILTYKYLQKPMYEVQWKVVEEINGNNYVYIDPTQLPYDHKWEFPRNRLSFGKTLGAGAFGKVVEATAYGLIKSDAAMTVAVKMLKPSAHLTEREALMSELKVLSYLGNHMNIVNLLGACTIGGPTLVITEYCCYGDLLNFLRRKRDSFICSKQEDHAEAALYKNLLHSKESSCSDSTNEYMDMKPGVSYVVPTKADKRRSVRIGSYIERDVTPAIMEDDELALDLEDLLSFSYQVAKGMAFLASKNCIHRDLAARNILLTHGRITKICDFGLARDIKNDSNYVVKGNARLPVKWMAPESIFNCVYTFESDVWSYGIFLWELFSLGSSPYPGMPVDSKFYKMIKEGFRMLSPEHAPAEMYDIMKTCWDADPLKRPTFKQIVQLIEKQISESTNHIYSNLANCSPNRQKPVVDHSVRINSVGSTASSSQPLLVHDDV

Sequence of Mitogen-activated protein kinase 8 (P45983 whole entry): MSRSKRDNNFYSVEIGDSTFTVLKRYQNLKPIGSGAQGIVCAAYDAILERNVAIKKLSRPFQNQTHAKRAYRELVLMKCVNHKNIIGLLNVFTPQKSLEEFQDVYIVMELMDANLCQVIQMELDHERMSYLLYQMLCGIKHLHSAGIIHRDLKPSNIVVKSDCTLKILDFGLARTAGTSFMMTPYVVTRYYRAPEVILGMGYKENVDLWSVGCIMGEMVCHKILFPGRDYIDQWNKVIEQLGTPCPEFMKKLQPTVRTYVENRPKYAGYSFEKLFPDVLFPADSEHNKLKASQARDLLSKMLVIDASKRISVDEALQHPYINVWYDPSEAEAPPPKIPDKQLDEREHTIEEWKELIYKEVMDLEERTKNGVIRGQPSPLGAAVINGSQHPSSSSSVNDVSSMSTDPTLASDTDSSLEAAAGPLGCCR
Sequence of Calcium/calmodulin-dependent protein kinase type 1D (Q8IU85 whole entry): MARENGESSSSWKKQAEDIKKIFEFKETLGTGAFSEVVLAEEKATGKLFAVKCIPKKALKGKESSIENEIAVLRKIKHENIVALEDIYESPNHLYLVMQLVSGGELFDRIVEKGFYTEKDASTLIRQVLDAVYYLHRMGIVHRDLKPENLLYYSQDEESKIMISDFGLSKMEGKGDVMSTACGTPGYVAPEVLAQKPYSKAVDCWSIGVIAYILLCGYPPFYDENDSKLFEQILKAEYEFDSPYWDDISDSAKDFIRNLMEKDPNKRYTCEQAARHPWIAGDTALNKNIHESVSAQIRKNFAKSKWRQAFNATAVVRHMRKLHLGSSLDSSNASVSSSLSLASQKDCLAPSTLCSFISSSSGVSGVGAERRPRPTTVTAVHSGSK
Sequence of Proto-oncogene tyrosine-protein kinase ROS (P08922 whole entry): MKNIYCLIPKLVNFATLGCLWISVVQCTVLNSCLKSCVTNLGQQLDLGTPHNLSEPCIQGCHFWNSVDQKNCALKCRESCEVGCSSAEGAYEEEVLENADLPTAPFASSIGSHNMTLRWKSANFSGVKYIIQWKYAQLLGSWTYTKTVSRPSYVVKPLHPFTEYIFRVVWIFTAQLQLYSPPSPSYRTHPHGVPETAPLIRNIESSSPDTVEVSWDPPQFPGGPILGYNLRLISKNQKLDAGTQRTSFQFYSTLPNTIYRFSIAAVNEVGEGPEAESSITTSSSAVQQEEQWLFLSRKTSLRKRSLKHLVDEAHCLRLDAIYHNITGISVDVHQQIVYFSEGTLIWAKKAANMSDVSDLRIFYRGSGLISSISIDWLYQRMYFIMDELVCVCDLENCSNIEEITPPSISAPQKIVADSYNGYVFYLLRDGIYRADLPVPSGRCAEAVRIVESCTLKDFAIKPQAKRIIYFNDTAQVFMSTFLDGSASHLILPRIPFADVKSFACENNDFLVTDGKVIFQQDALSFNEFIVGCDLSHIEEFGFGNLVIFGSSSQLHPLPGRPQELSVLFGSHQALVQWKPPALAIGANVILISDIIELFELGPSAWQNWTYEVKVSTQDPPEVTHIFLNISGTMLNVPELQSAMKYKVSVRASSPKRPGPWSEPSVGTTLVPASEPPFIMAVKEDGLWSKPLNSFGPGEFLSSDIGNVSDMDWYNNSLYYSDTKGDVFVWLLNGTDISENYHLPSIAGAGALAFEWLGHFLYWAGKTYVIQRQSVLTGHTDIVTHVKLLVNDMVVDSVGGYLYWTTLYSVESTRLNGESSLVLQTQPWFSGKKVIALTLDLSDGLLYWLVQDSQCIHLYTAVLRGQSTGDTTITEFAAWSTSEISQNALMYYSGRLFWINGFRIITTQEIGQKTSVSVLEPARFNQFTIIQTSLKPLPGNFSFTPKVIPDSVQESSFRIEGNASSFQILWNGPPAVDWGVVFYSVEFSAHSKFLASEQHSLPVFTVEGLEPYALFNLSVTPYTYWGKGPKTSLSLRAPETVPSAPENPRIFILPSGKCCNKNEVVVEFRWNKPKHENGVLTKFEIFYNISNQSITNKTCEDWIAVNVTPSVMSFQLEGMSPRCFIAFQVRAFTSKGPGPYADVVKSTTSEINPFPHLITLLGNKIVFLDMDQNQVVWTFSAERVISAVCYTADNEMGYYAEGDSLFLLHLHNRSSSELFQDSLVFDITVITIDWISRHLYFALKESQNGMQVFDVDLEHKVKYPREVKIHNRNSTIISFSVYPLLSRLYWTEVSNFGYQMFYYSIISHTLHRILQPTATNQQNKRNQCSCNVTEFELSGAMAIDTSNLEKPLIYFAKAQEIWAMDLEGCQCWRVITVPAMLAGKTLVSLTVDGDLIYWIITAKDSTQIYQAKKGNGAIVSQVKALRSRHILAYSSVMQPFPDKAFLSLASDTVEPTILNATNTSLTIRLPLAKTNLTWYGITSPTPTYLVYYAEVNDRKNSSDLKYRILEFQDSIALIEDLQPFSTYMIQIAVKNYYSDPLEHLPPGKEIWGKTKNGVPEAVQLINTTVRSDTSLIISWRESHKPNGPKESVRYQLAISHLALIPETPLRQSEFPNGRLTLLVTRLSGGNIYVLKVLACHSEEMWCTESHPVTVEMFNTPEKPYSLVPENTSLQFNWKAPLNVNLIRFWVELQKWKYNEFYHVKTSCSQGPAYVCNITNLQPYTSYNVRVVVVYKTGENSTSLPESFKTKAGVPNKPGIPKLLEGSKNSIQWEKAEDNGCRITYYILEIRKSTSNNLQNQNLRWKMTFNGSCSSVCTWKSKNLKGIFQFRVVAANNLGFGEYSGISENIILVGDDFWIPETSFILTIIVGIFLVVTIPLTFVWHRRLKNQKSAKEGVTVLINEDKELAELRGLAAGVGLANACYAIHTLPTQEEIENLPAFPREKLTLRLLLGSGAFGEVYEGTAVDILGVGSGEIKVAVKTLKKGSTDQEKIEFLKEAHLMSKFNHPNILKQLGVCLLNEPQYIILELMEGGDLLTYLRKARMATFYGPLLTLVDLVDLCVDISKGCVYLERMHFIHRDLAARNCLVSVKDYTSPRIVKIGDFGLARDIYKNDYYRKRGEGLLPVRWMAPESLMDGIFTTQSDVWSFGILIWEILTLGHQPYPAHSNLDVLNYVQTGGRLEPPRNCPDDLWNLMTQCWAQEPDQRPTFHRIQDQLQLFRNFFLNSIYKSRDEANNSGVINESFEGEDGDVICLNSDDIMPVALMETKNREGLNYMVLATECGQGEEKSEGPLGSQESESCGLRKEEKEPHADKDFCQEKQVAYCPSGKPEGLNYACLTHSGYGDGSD
Sequence of MAP kinase-activated protein kinase 5 (Q8IW41 whole entry): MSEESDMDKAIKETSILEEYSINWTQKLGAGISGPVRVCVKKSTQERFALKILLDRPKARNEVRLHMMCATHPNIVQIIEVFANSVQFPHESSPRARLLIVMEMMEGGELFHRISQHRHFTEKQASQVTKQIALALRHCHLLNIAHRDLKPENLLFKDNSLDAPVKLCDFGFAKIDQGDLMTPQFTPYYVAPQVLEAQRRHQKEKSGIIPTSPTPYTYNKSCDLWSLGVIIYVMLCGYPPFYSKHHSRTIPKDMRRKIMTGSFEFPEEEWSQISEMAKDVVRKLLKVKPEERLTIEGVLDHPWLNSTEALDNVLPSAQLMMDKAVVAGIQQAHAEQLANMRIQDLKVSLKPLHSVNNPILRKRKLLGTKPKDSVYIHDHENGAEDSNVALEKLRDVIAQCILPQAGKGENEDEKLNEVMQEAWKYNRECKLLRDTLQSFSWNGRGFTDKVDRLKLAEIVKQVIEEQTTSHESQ
Sequence of Calcium/calmodulin-dependent protein kinase type IV (Q16566 whole entry): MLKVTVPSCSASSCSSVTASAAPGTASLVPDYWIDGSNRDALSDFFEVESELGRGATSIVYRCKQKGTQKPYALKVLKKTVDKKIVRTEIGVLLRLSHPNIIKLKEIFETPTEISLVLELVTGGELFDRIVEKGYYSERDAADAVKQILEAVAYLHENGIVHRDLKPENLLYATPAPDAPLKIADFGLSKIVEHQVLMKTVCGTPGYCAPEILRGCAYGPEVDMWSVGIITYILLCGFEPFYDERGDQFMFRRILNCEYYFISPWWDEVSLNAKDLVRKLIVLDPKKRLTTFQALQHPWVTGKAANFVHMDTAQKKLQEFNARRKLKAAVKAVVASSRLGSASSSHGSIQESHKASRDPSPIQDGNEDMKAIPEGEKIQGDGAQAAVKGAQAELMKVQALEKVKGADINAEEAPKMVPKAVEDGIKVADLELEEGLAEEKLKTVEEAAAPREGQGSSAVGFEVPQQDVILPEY

With `CNc1cncc(-c2c[nH]c(=O)c(NC(=O)c3ccc(N4CCC[C@H]4CN4CCCC4)cc3)c2)n1`, the Ki in [1], in [2], in data set [3], in data set [4], in data set [5] and in data set [6] was above 1 µM throughout. In addition, the Ki is above 1 µM in data set [8] and 0.2 µM in [9]. Moreover, the Papp B→A at 2 h in [7] turned out to be 32.4 ×10⁻⁶ cm/s.
